Measurements: ChEMBL document CHEMBL5223107 (Bioorg Med Chem Lett, 2022)

The compounds below were run against T1, Androgen receptor (Homo sapiens, UniProt P10275) (assay: Inhibition of androgen receptor in human LNCaP cells assessed as inhibition of AR transcription activity by dual-luciferase reporter assays). Conditions: not given.
T1 sequence (P10275 whole entry): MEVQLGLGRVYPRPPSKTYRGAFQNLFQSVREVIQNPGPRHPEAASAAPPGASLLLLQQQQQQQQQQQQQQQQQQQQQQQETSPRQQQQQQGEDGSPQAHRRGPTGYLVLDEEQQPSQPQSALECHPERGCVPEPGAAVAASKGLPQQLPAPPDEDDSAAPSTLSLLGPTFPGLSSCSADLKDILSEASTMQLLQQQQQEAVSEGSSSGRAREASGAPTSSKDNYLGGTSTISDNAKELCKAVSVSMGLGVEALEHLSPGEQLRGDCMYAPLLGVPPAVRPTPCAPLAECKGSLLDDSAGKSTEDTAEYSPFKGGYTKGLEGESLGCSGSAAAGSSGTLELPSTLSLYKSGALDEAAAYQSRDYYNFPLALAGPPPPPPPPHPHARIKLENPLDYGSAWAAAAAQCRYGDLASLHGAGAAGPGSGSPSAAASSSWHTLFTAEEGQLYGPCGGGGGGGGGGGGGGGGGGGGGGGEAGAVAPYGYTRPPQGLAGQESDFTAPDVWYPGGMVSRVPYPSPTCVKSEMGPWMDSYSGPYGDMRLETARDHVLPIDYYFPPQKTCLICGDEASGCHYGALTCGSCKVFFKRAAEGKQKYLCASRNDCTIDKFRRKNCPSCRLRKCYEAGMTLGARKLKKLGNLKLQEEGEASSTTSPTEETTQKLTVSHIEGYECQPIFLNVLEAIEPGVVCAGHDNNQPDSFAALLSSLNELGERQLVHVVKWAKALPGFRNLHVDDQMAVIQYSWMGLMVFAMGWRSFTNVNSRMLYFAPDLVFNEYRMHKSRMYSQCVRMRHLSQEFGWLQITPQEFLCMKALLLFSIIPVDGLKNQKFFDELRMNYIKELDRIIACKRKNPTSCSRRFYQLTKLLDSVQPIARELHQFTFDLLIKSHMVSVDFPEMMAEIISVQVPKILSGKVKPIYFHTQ
Assay type: cell-based
For `Cc1c(O)c(O)c(C=O)c(COCc2cccc3ccccc23)c1-c1ccccc1`, the IC50 was > 5 µM. For `Cc1c(C)c(COCc2ccccc2)c(C=O)c(O)c1O`, the IC50 was > 5 µM. With `Cc1ccc(COCc2c(C=O)c(O)c(O)c(C)c2-c2ccccc2)cc1` the IC50 was > 5 µM. In the case of `Cc1c(O)c(O)c(C=O)c(COCc2ccccc2)c1-c1ccc(C(F)(F)F)cc1Br`, the IC50 is reported as 4.08 µM. With `Cc1c(O)c(O)c(C=O)c(COCc2ccccc2F)c1-c1ccccc1` the IC50 was > 5 µM. In the case of `Cc1c(O)c(O)c(C=O)c(COCc2ccccc2C(F)(F)F)c1-c1ccccc1`, the IC50 is reported as 2.54 µM. For `Cc1cc(C)cc(-c2c(C)c(O)c(O)c(C=O)c2COCc2ccccc2)c1`, the IC50 was > 5 µM. For `Cc1c(O)c(O)c(C=O)c(COCc2ccccc2)c1-c1cccc(Br)c1F`, the IC50 was > 5 µM. For `CCc1cc(COCc2ccccc2)c(C=O)c(O)c1O`, the IC50 was > 5 µM. Compound `Cc1c(O)c(O)c(C=O)c(COCc2cccc(F)c2)c1-c1ccccc1` has an IC50 of 4.05 µM. For `C=CCc1c(C)c(O)c(O)c(C=O)c1COCc1ccccc1`, the IC50 was > 5 µM. In the case of `COC(=O)c1ccc(-c2c(C)c(O)c(O)c(C=O)c2COCc2ccccc2)cc1`, the IC50 is reported as 4.23 µM. In the case of `Cc1c(O)c(O)c(C=O)c(COCc2ccccc2)c1-c1ccc(C(F)(F)F)cc1Cl`, the IC50 is reported as 3.25 µM. In the case of `Cc1c(O)c(O)c(C=O)c(COCc2ccc(C(F)(F)F)cc2)c1-c1ccccc1`, the IC50 is reported as 3.32 µM. `Cc1c(O)c(O)c(C=O)c(COCc2ccccc2)c1-c1ccc([N+](=O)[O-])cc1` gave an IC50 of 3.74 µM. With `Cc1c(O)c(O)c(C=O)c2c1[C@@H](c1ccc(C(=O)O[C@H]3CC[C@@]4(C)C(=CC[C@H]5[C@@H]6CC[C@H]([C@H](C)CCCC(C)C)[C@@]6(C)CC[C@@H]54)C3)cc1)CC2` the IC50 was > 5 µM. For `Cc1c(O)c(O)c(C=O)c(COCc2ccccc2)c1-c1cc(C(F)(F)F)cc(C(F)(F)F)c1`, the IC50 was 4.39 µM. For `Cc1c(O)c(O)c(C=O)c(COCc2ccccc2)c1-c1ccc(-c2ccccc2)cc1`, the IC50 was > 5 µM. For `Cc1c(O)c(O)c(C=O)c(COCc2ccc(F)cc2)c1-c1ccc(C(F)(F)F)cc1`, the IC50 was 2.14 µM. `Cc1c(O)c(O)c(C=O)c(COCc2ccccc2)c1-c1ccccc1Cl` was tested, and the IC50 was > 5 µM. With `Cc1ccccc1-c1c(C)c(O)c(O)c(C=O)c1COCc1ccccc1` the IC50 was > 5 µM. Work on `Cc1c(O)c(O)c(C=O)c(COCc2ccccc2)c1-c1ccc(OC(F)(F)F)cc1` yielded an IC50 of 4.49 µM. For `Cc1c(O)c(O)c(C=O)c(CO[C@H]2CC[C@@]3(C)C(=CC[C@@H]4[C@@H]3CC[C@]3(C)C(=O)CC[C@@H]43)C2)c1-c1ccccc1`, the IC50 was 3.22 µM. With `Cc1c(O)c(O)c(C=O)c(COCc2ccccc2)c1-c1cccs1` the IC50 was > 5 µM. `COc1ccccc1COCc1c(C=O)c(O)c(O)c(C)c1-c1ccccc1` was tested, and the IC50 was > 5 µM. In the case of `Cc1c(O)c(O)c(C=O)c(COCc2ccccc2)c1-c1cc(F)ccc1F`, the IC50 is reported as > 5 µM. `Cc1c(O)c(O)c(C=O)c(COCc2ccccc2C(F)(F)F)c1-c1cccc(F)c1` was tested, and the IC50 was > 5 µM. For `Cc1c(O)c(O)c(C=O)c(COCc2ccccc2)c1-c1ccc(C(F)(F)F)cc1`, the IC50 was 1.23 µM. Compound `Cc1c(O)c(O)c(C=O)c(COCc2ccccc2)c1-c1ccc(F)cc1F` has an IC50 of 2.3 µM. `Cc1c(O)c(O)c(C=O)c(COCc2ccccc2)c1-c1ccc(Cl)cc1C(F)(F)F` was tested, and the IC50 was > 5 µM. With `COc1ccc(-c2c(C)c(O)c(O)c(C=O)c2COCc2ccccc2)cc1` the IC50 was > 5 µM. `Cc1c(O)c(O)c(C=O)c(COCc2ccccc2)c1-c1cccc2ccccc12` was tested, and the IC50 was > 5 µM. `Cc1c(O)c(O)c(C=O)c(COCc2ccc(F)cc2)c1-c1ccc(F)cc1` showed an IC50 of 2.41 µM. Compound `Cc1c(O)c(O)c(C=O)c(COCc2cccc(F)c2)c1-c1ccc(C(F)(F)F)cc1` has an IC50 of 2.09 µM. With `Cc1c(O)c(O)c(C=O)c(COCc2ccccc2)c1-c1ccccc1C(F)(F)F` the IC50 was > 5 µM. `Cc1c(O)c(O)c(C=O)c(COCc2ccccc2F)c1-c1ccc(C(F)(F)F)cc1` was tested, and the IC50 was 2.52 µM. `Cc1c(O)c(O)c(C=O)c(CSCCC(C)C)c1-c1ccccc1` was tested, and the IC50 was > 5 µM. With `Cc1c(O)c(O)c(C=O)c(COCc2ccccc2)c1-c1ccccc1OC(F)(F)F` the IC50 was > 5 µM. For `Cc1c(O)c(O)c(C=O)c2c1C1(CC2)c2ccccc2-c2ccccc21`, the IC50 was > 5 µM. With `COc1cccc(COCc2c(C=O)c(O)c(O)c(C)c2-c2ccccc2)c1` the IC50 was > 5 µM. `C#CCOCc1c(C=O)c(O)c(O)c(C)c1-c1ccccc1` was tested, and the IC50 was > 5 µM. In the case of `C=CCc1c(C)c(O)c(O)c(C=O)c1COCc1ccc(OC)cc1`, the IC50 is reported as > 5 µM. With `CCc1c(O)c(O)c(C=O)c(COCc2ccccc2)c1-c1ccccc1` the IC50 was > 5 µM. In the case of `CC(C)=CCC/C(C)=C/COCc1cc(C)c(O)c(O)c1C=O`, the IC50 is reported as > 5 µM. `Cc1c(O)c(O)c(C=O)c(COCc2ccccc2)c1-c1ccc(F)c(F)c1` showed an IC50 of 2.05 µM. `Cc1c(O)c(O)c(C=O)c(COCc2cccc(F)c2)c1-c1cccc(F)c1` was tested, and the IC50 was 2.89 µM. With `Cc1c(O)c(O)c(C=O)c(COCc2cccc(Cl)c2Cl)c1-c1ccccc1` the IC50 was 2.81 µM. In the case of `Cc1c(O)c(O)c(C=O)c(COCc2ccccc2)c1-c1ccccc1Br`, the IC50 is reported as > 5 µM. `COc1ccccc1-c1c(C)c(O)c(O)c(C=O)c1COCc1ccccc1` was tested, and the IC50 was > 5 µM. With `Cc1c(O)c(O)c(C=O)c(COCc2ccccc2F)c1-c1cccc(F)c1` the IC50 was > 5 µM. Work on `Cc1c(O)c(O)c(C=O)c(COCc2ccc(OC(F)(F)F)cc2)c1-c1ccccc1` yielded an IC50 of 2.72 µM. `Cc1c(O)c(O)c(C=O)c2c1C(C#Cc1ccc(Br)cc1)CC2` (stereo not drawn) was tested, and the IC50 was > 5 µM. With `Cc1c(O)c(O)c(C=O)c(COCc2ccccc2)c1-c1ccc(F)cc1Cl` the IC50 was > 5 µM. `Cc1c(O)c(O)c(C=O)c(COCc2cccc(F)c2)c1-c1ccc(F)cc1` gave an IC50 of 2.58 µM. `Cc1cc(CO[C@H]2CC[C@@]3(C)C(=CC[C@@H]4[C@@H]3CC[C@]3(C)C(=O)CC[C@@H]43)C2)c(C=O)c(O)c1O` was tested, and the IC50 was > 5 µM. `Cc1c(O)c(O)c(C=O)c(COCc2ccccc2)c1-c1ccccc1C#N` was tested, and the IC50 was > 5 µM. With `C=C(C)Cc1c(C)c(O)c(O)c(C=O)c1COCc1ccccc1` the IC50 was > 5 µM. For `Cc1c(O)c(O)c(C=O)c(COCc2ccccc2)c1-c1ccccc1`, the IC50 was > 5 µM. With `Cc1c(O)c(O)c(C=O)c(COCc2ccccc2)c1-c1ccc(C(C)(C)C)cc1` the IC50 was 3.51 µM. In the case of `Cc1cccc(-c2c(C)c(O)c(O)c(C=O)c2COCc2ccccc2)c1`, the IC50 is reported as > 5 µM. With `Cc1c(O)c(O)c(C=O)c(COCc2ccccc2F)c1-c1ccc(F)cc1` the IC50 was > 5 µM. `Cc1c(O)c(O)c(C=O)c(COCc2ccccc2)c1-c1ccc(Br)cc1` was tested, and the IC50 was 3.47 µM. `Cc1c(O)c(O)c(C=O)c(COCc2ccc(F)cc2)c1-c1ccccc1` gave an IC50 of 2.38 µM. For `Cc1c(O)c(O)c(C=O)c(COCc2ccccc2)c1-c1ccc(Br)c(F)c1`, the IC50 was 2.19 µM. Work on `Cc1c(O)c(O)c(C=O)c(COCc2ccccc2)c1-c1ccc(Br)cc1F` yielded an IC50 of 3.39 µM. Compound `Cc1c(O)c(O)c(C=O)c(COCc2cccc(C(F)(F)F)c2)c1-c1ccccc1` has an IC50 of 3.05 µM. Compound `Cc1c(O)c(O)c(C=O)c(COCc2ccc(F)cc2)c1-c1cccc(F)c1` has an IC50 of 2.09 µM. With `Cc1c(O)c(O)c(C=O)c(COCc2ccccc2)c1-c1ccc(Cl)cc1` the IC50 was 4.9 µM. For `COc1ccc(COCc2cc(C)c(O)c(O)c2C=O)cc1`, the IC50 was > 5 µM. Work on `Cc1cccc(COCc2c(C=O)c(O)c(O)c(C)c2-c2ccccc2)c1` yielded an IC50 of 4.53 µM. In the case of `Cc1c(O)c(O)c(C=O)c(COCc2ccccc2)c1-c1ccc(Cl)cc1Br`, the IC50 is reported as > 5 µM. For `Cc1ccc(F)cc1-c1c(C)c(O)c(O)c(C=O)c1COCc1ccccc1`, the IC50 was > 5 µM. `CC(C)c1cc(COCc2ccccc2)c(C=O)c(O)c1O` was tested, and the IC50 was > 5 µM. `Cc1ccc(-c2c(C)c(O)c(O)c(C=O)c2COCc2ccccc2)cc1` showed an IC50 of 3.27 µM. For `Cc1c(O)c(O)c(C=O)c(COCc2ccccc2)c1-c1ccc(F)cc1`, the IC50 was > 5 µM. In the case of `Cc1c(O)c(O)c(C=O)c(COCc2ccccc2)c1CO[Si](C)(C)C`, the IC50 is reported as > 5 µM. With `Cc1cc(COCc2ccccc2)c(C=O)c(O)c1O` the IC50 was > 5 µM.

Each compound was assayed on CWR22R (assay: Antiproliferative activity against human 22Rv1 cells assessed as cell growth inhibition incubated for 72 hrs by MTT assay). Conditions: 22Rv1, 72 h.
Assay type: functional, cell-based
`CNC(=O)c1ccc(N2C(=S)N(c3ccc(C#N)c(C(F)(F)F)c3)C(=O)C2(C)C)cc1F` [ENZALUTAMIDE] gave an IC50 of 46.3 µM.
